# Measured values: US11584756B2, “Heterocyclic compounds as BET inhibitors” (NUVATION BIO INC., priority 2019, dated 2023)
# pIC50: −log10 of the molar value. Where two headings read alike, the source gives them in different places.
# Legend:
# [1] = system: MV-4-11 human acute myeloid leukemia cell line; assay: Cell viability assay in MV-4-11 cells (Cell Titer-Glo); type: cell-based; settings: MV4-11, 72 hrs incubation
# Description: The effects of test compounds were studied in a cell viability assay in the MV-4-11 human acute myeloid leukemia cell line. The cells were harvested during the logarithmic growth period and counted. Cells were seeded at a count of 15000 cells per well/100 μl. After seeding, cells were incubated at 37° C. 5% CO2 for 1 hr. Cells were treated with test compounds at 8 concentrations within a desired concentration range (e.g. 5 nM-10 μM) for generation of dose response curves by preparing serial dilutions of the test compound in DMSO which were further diluted with culture medium and then added to each well. The plate was further incubated for another 72 hrs in a humidified incubator at 37° C. and 5% CO2. The assay was terminated by addition of Cell Titer-Glo reagent (Promega, Madison, Wis.) at ¼ the volume of total medium per well. Contents were mixed, the plate was incubated for 10 min at room temperature and luminescence was measured. Cell viability data were plotted using GraphPad Prism (GraphPad Software, Inc., San Diego, Calif.). In addition, a nonlinear regression model with a sigmoidal dose response and variable slope within GraphPad Prism was used to calculate the IC50 value of individual test compounds.
# BRD4-2 = BRD4-2 (Homo sapiens (Human), UniProt O60885); assay: Bromodomain and Extraterminal Domain (BET) binding assay, BRD4-2; settings: histone H4 peptide (1-21) K5/8/12/16Ac-biotin ligand; 130 nM protein, 70 nM ligand
# Description: (§1) The bromodomain binding assays were performed by Reaction Biology Corp., Malvern, Pa., USA (www.reactionbiology.com). The BET binding assays were conducted in 384 well microplates in assay buffer (50 mM HEPES-HCl, pH 7.5, 100 mM NaCl, 1 mg/ml BSA, 0.05% CHAPS, and 0.5% DMSO) with compounds added as DMSO stocks at a single concentration or with 10-point dose response titrations. BET protein or assay buffer were delivered to the appropriate wells of the microplate. Test compound was then delivered by acoustic technology via a Labcyte Echo550 liquid handler. The microplate was centrifuged for 5 min and pre-incubated for 30 min at RT with gentle shaking. The ligand (histone H4 peptide (1-21) K5/8/12/16Ac-biotin) was delivered and the microplate was again centrifuged for 5 min and allowed to incubate for 30 min at RT with gentle shaking. Donor beads were then added in the absence of light and the microplate was centrifuged and gently shaken. After 5 min, acceptor beads were added in the absence of light and the microplate was centrifuged and gently shaken in the dark for 60 min. The microplate was read using a Perkin Elmer EnSpire Alpha plate reader (λ Ex/λ Em=680/520-620 nm). Percent inhibition was calculated relative to positive and negative controls on a per plate basis. For titration experiments, IC50 values were determined by fitting the percent inhibition versus compound concentration.
# BRD4-1 = BRD4-1 (Homo sapiens (Human), UniProt O60885); assay: Bromodomain and Extraterminal Domain (BET) binding assay, BRD4-1; settings: histone H4 peptide (1-21) K5/8/12/16Ac-biotin ligand; 20 nM protein, 20 nM ligand
# Description: as §1
# [2] = system: IEC-6 rat intestinal epithelial cell line; assay: Cell viability assay in IEC-6 cells (resazurin), potential toxicity to non-cancerous cells; type: cell-based
# Description: The effects of test compounds were also studied in the IEC-6 rat intestinal epithelial cell line to assess potential toxicity to non-cancerous cells. The cells were harvested during the logarithmic growth period and counted. In Protocol A, cells were seeded at a count of 3000 cells per well/100 μl in a 96-well plate. After seeding, cells were incubated at 37° C. 5% CO2 for 24 hr. Cells were treated with test compounds at 8 concentrations within a desired concentration range (e.g. 5 nM-10 μM) for generation of dose response curves by preparing serial dilutions of the test compound in DMSO which were further diluted with culture medium and then added to each well. The plate was further incubated for another 96 hrs in humidified incubator at 37° C. and 5% CO2. The assay was terminated by addition of resazurin (#R7017, Sigma). The plate was incubated for 4 hr at 37° C. 5% CO2 and fluorescence was measured using excitation and emission wavelengths of 535 and 590 nm, respectively. Cell viability data were plotted using GraphPad Prism (GraphPad Software, Inc., San Diego, Calif.). In addition, a nonlinear regression model with a sigmoidal dose response and variable slope within GraphPad Prism was used to calculate the IC50 value of individual test compounds. Protocol B was the same as Protocol A except that cells were seeded at a count of 4000 cells per well/100 μl in a 96-well plate, and the incubation with test compound was for 48 hrs instead of 96 hrs.
# [3] = Protocol A: 3000 cells per well, 96 hrs incubation with test compound, read-out: Protocol A IC50 (μM), cell viability in IEC-6 cells
# [4] = Protocol B: 4000 cells per well, 48 hrs incubation with test compound, read-out: Protocol B IC50 (μM), cell viability in IEC-6 cells
Structure (SMILES),IC50 [1],pIC50 (BRD4-2),pIC50 (BRD4-1),"IC50 [2, 3]","IC50 [2, 4]"
"CCNC(=O)c1cc2c(-c3cc(C(C)(C)O)ccc3Oc3c(C)cc(F)cc3C)cn(C)c(=O)c2s1 [Compound 1, N-ethyl-4-(2-(4-fluoro-2,6-dimethylphenoxy)-5-(2-hydroxypropan-2-yl)phenyl)-6-methyl-7-oxo-6,7-dihydrothieno[2,3-c]pyridine-2-carboxamide]",0.131 µM,8.70,5.00,0.266 µM,4.91 µM
"CCNC(=O)c1cc2c(-c3cc(C(C)(C)O)ccc3Oc3ccc(Cl)cc3Cl)cn(C)c(=O)c2s1 [Compound 2, 4-(2-(2,4-dichlorophenoxy)-5-(2-hydroxypropan-2-yl)phenyl)-N-ethyl-6-methyl-7-oxo-6,7-dihydrothieno[2,3-c]pyridine-2-carboxamide]",0.111 µM,9.00,–,0.061 µM,–
"CCNC(=O)c1cc2c(-c3cc(C(C)(C)O)ccc3Oc3ccc(F)cc3F)cn(C)c(=O)c2s1 [Compound 3, 4-(2-(2,4-difluorophenoxy)-5-(2-hydroxypropan-2-yl)phenyl)-N-ethyl-6-methyl-7-oxo-6,7-dihydrothieno[2,3-c]pyridine-2-carboxamide]",0.074 µM,> 8.70,5.69,0.089 µM,–
"CCS(=O)(=O)Nc1ccc(Oc2c(C)cccc2C)c(-c2cn(C)c(=O)c3sc(-c4nnc(C)o4)cc23)c1 [Compound 4, N-(4-(2,6-dimethylphenoxy)-3-(6-methyl-2-(5-methyl-1,3,4-oxadiazol-2-yl)-7-oxo-6,7-dihydrothieno[2,3-c]pyridin-4-yl)phenyl)ethanesulfonamide]",0.115 µM,8.22,6.71,0.048 µM,0.283 µM
"Cc1noc(-c2cc3c(-c4cc(C(C)(C)O)ccc4Oc4ccc(F)cc4F)cn(C)c(=O)c3s2)n1 [Compound 8, 4-(2-(2,4-difluorophenoxy)-5-(2-hydroxypropan-2-yl)phenyl)-6-methyl-2-(3-methyl-1,2,4-oxadiazol-5-yl)thieno[2,3-c]pyridin-7(6H)-one]",0.379 µM,7.13,7.03,0.156 µM,0.521 µM
"CCS(=O)(=O)Nc1ccc(Oc2c(C)cc(F)cc2C)c(-c2cn(C)c(=O)c3sc(-c4nnc(C)o4)cc23)c1 [Compound 10, N-(4-(4-fluoro-2,6-dimethylphenoxy)-3-(6-methyl-2-(5-methyl-1,3,4-oxadiazol-2-yl)-7-oxo-6,7-dihydrothieno[2,3-c]pyridin-4-yl)phenyl)ethanesulfonamide]",0.126 µM,8.47,6.95,–,0.78 µM
"Cc1nnc(-c2cc3c(-c4cc(C(C)(C)O)ccc4Oc4c(C)cc(F)cc4C)cn(C)c(=O)c3s2)o1 [Compound 13, 4-(2-(4-fluoro-2,6-dimethylphenoxy)-5-(2-hydroxypropan-2-yl)phenyl)-6-methyl-2-(5-methyl-1,3,4-oxadiazol-2-yl)thieno[2,3-c]pyridin-7(6H)-one]",0.54 µM,8.05,5.31,–,2.5 µM
"Cn1cc(-c2cc(C(C)(C)O)ccc2Oc2ccc(F)cc2F)c2cc(C(=O)N3CCCC(F)(F)C3)sc2c1=O [Compound 23, 4-(2-(2,4-difluorophenoxy)-5-(2-hydroxypropan-2-yl)phenyl)-2-(3,3-difluoropiperidine-1-carbonyl)-6-methylthieno[2,3-c]pyridin-7(6H)-one]",0.768 µM,7.74,5.95,–,1.62 µM
"Cn1cc(-c2cc(C(C)(C)O)ccc2Oc2ccc(F)cc2F)c2cc(C(=O)NC3CC3)sc2c1=O [Compound 145, N-cyclopropyl-4-(2-(2,4-difluorophenoxy)-5-(2-hydroxypropan-2-yl)phenyl)-6-methyl-7-oxo-6,7-dihydrothieno[2,3-c]pyridine-2-carboxamide]",0.245 µM,8.15,6.22,–,0.691 µM
"CCNC(=O)c1cc2c(=O)n(C)cc(-c3cc(C(C)(C)O)ccc3Oc3c(C)cc(F)cc3C)c2s1 [Compound 146, N-ethyl-7-(2-(4-fluoro-2,6-dimethylphenoxy)-5-(2-hydroxypropan-2-yl)phenyl)-5-methyl-4-oxo-4,5-dihydrothieno[3,2-c]pyridine-2-carboxamide]",0.084 µM,8.70,5.53,–,0.729 µM
"CCNC(=O)c1cc2c(-c3cc(NS(=O)(=O)CC)ccc3Oc3c(C)cccc3C)cn(C)c(=O)c2s1 [Compound 147, 4-(2-(2,6-dimethylphenoxy)-5-(ethylsulfonamido)phenyl)-N-ethyl-6-methyl-7-oxo-6,7-dihydrothieno[2,3-c]pyridine-2-carboxamide]",0.047 µM,8.74,6.52,–,1.77 µM
"CCS(=O)(=O)Nc1ccc(Oc2ccc(F)cc2F)c(-c2cn(C)c(=O)c3sc(-c4nc5ccccc5o4)cc23)c1 [Compound 158, N-(3-(2-(benzo[d]oxazol-2-yl)-6-methyl-7-oxo-6,7-dihydrothieno[2,3-c]pyridin-4-yl)-4-(2,4-difluorophenoxy)phenyl)ethanesulfonamide]",0.56 µM,6.71,6.99,–,–
